Literature values, collected in US7998474B2, “Methods for treating an inflammatory disease of the bowel” (Rowett Research Institute, priority 2001, dated 2011).

Test system: Clostridium perfringens serotype A
Settings: mouse, in vivo; cited from earlier work

Substance: Bacteroides thetaiotaomicron [BT]
- Resistance of ex-germ free mice to infection by Clostridium perfringens serotype A: did not however increase the resistance
